pIC50: −log10 of the molar value. Where a name gives a salt, the structure may show the parent alone.
How the values were obtained:
Jeko-1 = test: CTG assay of payloads (CellTiter-Glo cell viability); assay type: cell-based
Source text: The CTG assay is a method of determining the number of viable cells in culture based on quantitation of the ATP present, an indicator of metabolically active cells. The cell assay requires the addition of a single reagent, Cell Titer Glo, in which cells are lysed and generation of a luminescent signal is produced. The luminescent signal is proportional to the amount of ATP present. The amount of ATP is directly proportional to the number of cells present in culture. For our assay, cells are ensured to be in log-phase for either Jeko-1 or MDA-MB-468. Cells are transferred to 96 wells and treated with compounds in three-fold serial dilution starting from […] (10 points dilution), for 72 h. Cell viability is analyzed with CellTiter-Glo® Luminescent Cell Viability Assay (Promega) following manufactures' instruction. Percentage of viable cells in each compound concentration is determined by normalizing with the luminescence of vehicle control and plotted into percentage of viability versus dose response curve by nonlinear fit in GraphPad Prism software.

[1] = Human hepatocyte clearance (HHEP CL); assay type: in vitro ADME; parameters: half-life: dose or concentration left out as unconfirmed; conditions: for half-life: both sexes, human; for HHEP Cl T1/2: human hepatocytes intrinsic clearance, 90 min incubation
Procedure: Suspensions of human hepatocytes (from 10 mixed gender human donors, final concentration 0.5×10^6 cell/mL) in Williams' E medium are incubated for 90 min with a test compound (0.90% acetonitrile and 0.10% DMSO, final concentration […]) and positive controls (7-Ethoxycoumarin, 7-Hydroxycoumarin, 0.90% acetonitrile and 0.10% DMSO, final concentration […]), with constant shaking at about 600 rpm at 37° C., in an incubator at 5% CO2 and 95% humidity. The total volume of incubation was 200 μL. A sample ([…]) is taken out at TO, 15, 30, 60 and 90 min, which is added intermediately to the ice-cold stop solution (acetonitrile with 200 ng/ml of tobutamide and labetalol as internal standard) (125 μl), and vortexed at 500 rpm for 10 min, centrifuged at 3220×g for 20 min at 4° C. Analytical plates are sealed and stored at 4° C., until LCMS analysis. Viability of hepatocytes at pre-incubation is determined to be 84.5%.

[2] = Human liver microsome clearance (HLM CL); assay type: in vitro ADME; parameters: half-life: dose or concentration left out as unconfirmed; conditions: for half-life: human, microsomes; for HLM Cl T1/2: human liver microsome clearance, 60 min incubation, NADPH
Procedure: Working solution is prepared by adding 5 μL of compound and control stock solution (10 mM in dimethyl sulfoxide, DMSO) to 495 μL of acetonitrile (ACN) (intermediate solution concentration: 100 μM, 99% CAN and 1% DMSO. The appropriate concentrations of microsome working solutions are prepared in 100 mM potassium phosphate buffer. After reaction plates containing mixtures of compound and microsomes are pre-incubated at 37° C., for 10 min. […] of 2 mM of NADPH and 2 mM of MgCl2 solution is added to start the reaction. The final concentrations of incubation medium are as follows: microsome-0.5 mg protein/mL, test compound/control […], NADPH—1 mM, MgCl2—1 mM, acetonitrile 0.99%, DMSO 0.01%. Incubations are performed at 37° C., for 60 min. Samples are taken out at T0, T5, T15, T30, T45 and T60, which is added intermediately to the ice-cold stop solution (acetonitrile with 200) ng/ml of tobutamide and labetalol as internal standard) (125 μl), shaken for 10 min, centrifuged at 4000 rpm for 20 min at 4° C. Analytical plates are analyzed by LCMS.
Human liver microsome clearance assay assess metabolism by the cytochrome P450 system (phase I enzymes). These enzymes oxidize substrates by incorporating oxygen atoms into hydrocarbons, thus causing the introduction of hydroxyl groups, or N- O- and S-dealkylation of substrates and forming more polar products easier to be cleared. Human hepatocyte clearance assay measures more broadly the overall cellular metabolism of the test compound (phase I and phase II enzyme pathways). Phase II enzymes catalyze the conjugation reaction of xenobiotic metabolites and charged species, such as glutathione, sulfate, glycine, or glucuronic acid to form even more polar compounds for easier clearance.

physchem = test: physchem; parameters: dose or concentration left out as unconfirmed; conditions: PAMPA
[3] = AC-SINS self-interaction (antibody developability); assay type: physicochemical; conditions: FIG. 19
Procedure: Antibody developability was assessed by performing an AC-SINS assay and evaluating the potential for self-interaction.
An initial assessment of antibody developability was performed by AC-SINS to evaluate the potential for self-interaction (FIG. 19).

[4] = PAMPA (Parallel Artificial Membrane Permeability Assay); parameters: dose or concentration left out as unconfirmed; conditions: pH 7.4

Compound	pIC50 (Jeko-1; Homo sapiens, JeKo-1, 72 h)	half-life ([1]; hepatocytes)	half-life [2]	Papp (physchem; pH 7.4)	pIC50 (Jeko-1; 72 h)	HHEP Cl T1/2 [1]	HLM Cl T1/2 [2]	Papp (physchem; pH 5)	AC-SINS shift / self-interaction [3]	half-life ([1]; hepatocytes in suspension, read-out: HHEP Cl T1/2)	Papp [4]
CC[C@@]1(O)C(=O)OCc2c1cc1n(c2=O)Cc2c-1nc1cc(F)c(C)c3c1c2[C@@H]([C@@H](N)CO)CC3 (single isomer, unassigned) [Compound 16-102, hydrochloride]	7.56	1.75 h	2.37 h	0.02 ×10⁻⁶ cm/s							
CCc1c2c(nc3ccc(O)cc13)-c1cc3c(c(=O)n1C2)COC(=O)[C@]3(O)CC [SN-38, reference compound]					9.04	1.28 h	1.35 h				
CC[C@@]1(O)C(=O)OCc2c1cc1n(c2=O)Cc2c-1nc1cc(F)c(C)c3c1c2[C@H]([C@@H](CCO)NC(C)C)CC3 (single isomer, unassigned) [Compound 14-95]	8.77	1.42 h	0.483 h	6.6 ×10⁻⁶ cm/s				12.7 ×10⁻⁶ cm/s			
CC[C@@]1(O)C(=O)OCc2c1cc1n(c2=O)Cc2c-1nc1cc(F)c(C)c3c1c2[C@@H]([C@H](CCO)N(C)C)CC3 (single isomer, unassigned) [Compound 15-96]	9.28	> 3.62 h	1.6 h	15.6 ×10⁻⁶ cm/s				16.7 ×10⁻⁶ cm/s			
CC[C@@]1(O)C(=O)OCc2c1cc1n(c2=O)Cc2c-1nc1cc(F)c(C)c3c1c2[C@@H]([C@@H](CO)NC(C)C)CC3 (single isomer, unassigned) [Compound 17-113]	8.38	2.42 h	0.533 h	9.7 ×10⁻⁶ cm/s				26.9 ×10⁻⁶ cm/s			
CC[C@@]1(O)C(=O)OCc2c1cc1n(c2=O)Cc2c-1nc1cc(F)c(C)c3c1c2[C@H]([C@H](CCO)NC(C)C)CC3 (single isomer, unassigned) [Compound 14-94]	8.80	1.13 h	0.112 h	7.5 ×10⁻⁶ cm/s				16.5 ×10⁻⁶ cm/s			
CC[C@@]1(O)C(=O)OCc2c1cc1n(c2=O)Cc2c-1nc1cc(F)c(C)c3c1c2[C@H]([C@H](CCO)N(C)C)CC3 (single isomer, unassigned) [Compound 15-98]	9.60	1.3 h	0.112 h	11.3 ×10⁻⁶ cm/s				27 ×10⁻⁶ cm/s			
CC[C@@]1(O)C(=O)OCc2c1cc1n(c2=O)Cc2c-1nc1cc(F)c(C)c3c1c2[C@H]([C@@H](CO)NC(C)C)CC3 (single isomer, unassigned) [Compound 17-115]	7.80	1.5 h	0.1 h	4.8 ×10⁻⁶ cm/s				10.5 ×10⁻⁶ cm/s			
CC[C@@]1(O)C(=O)OCc2c1cc1n(c2=O)Cc2c-1nc1cc(F)c(C)c3c1c2[C@@H]([C@H](CCO)NC(C)C)CC3 (single isomer, unassigned) [Compound 14-92]	8.77	> 3.62 h	0.95 h	8.4 ×10⁻⁶ cm/s				17.7 ×10⁻⁶ cm/s			
Adalimumab									low shift		
CC[C@@]1(O)C(=O)OCc2c1cc1n(c2=O)Cc2c-1nc1cc(F)c(C)c3c1c2[C@H]([C@H](N)CO)CC3 (single isomer, unassigned) [Compound 16-111, hydrochloride]	7.75	2.22 h	1.72 h	0.04 ×10⁻⁶ cm/s				0.03 ×10⁻⁶ cm/s			
CC[C@@]1(O)C(=O)OCc2c1cc1n(c2=O)Cc2c-1nc1cc(F)c(C)c3c1c2[C@@H](NC(=O)CO)CC3 [Dxd, reference compound]					9.02	>3.62 h	1.67 h				
CC[C@@]1(O)C(=O)OCc2c1cc1n(c2=O)Cc2c-1nc1cc(F)c(C)c3c1c2[C@H]([C@@H](N)CO)CC3 (single isomer, unassigned) [Compound 16-108, hydrochloride]	8.08	2.1 h	1.83 h	0.002 ×10⁻⁶ cm/s							
CC[C@@]1(O)C(=O)OCc2c1cc1n(c2=O)Cc2c-1nc1cc(F)c(C)c3c1c2[C@@H](N)CC3 [Exatecan]	9.40		1.25 h					> 107 ×10⁻⁶ cm/s		2.38 h	16.3 ×10⁻⁶ cm/s
CC[C@@]1(O)C(=O)OCc2c1cc1n(c2=O)Cc2c-1nc1cc(F)c(C)c3c1c2[C@@H]([C@@H](CCO)NC(C)C)CC3 (single isomer, unassigned) [Compound 14-93]	8.59	3.08 h	0.767 h	9.2 ×10⁻⁶ cm/s				20.6 ×10⁻⁶ cm/s			
CC[C@@]1(O)C(=O)OCc2c1cc1n(c2=O)Cc2c-1nc1cc(F)c(C)c3c1c2[C@H]([C@H](CO)NC(C)C)CC3 (single isomer, unassigned) [Compound 17-114]	8.72	0.8 h	0.035 h	8 ×10⁻⁶ cm/s				18.3 ×10⁻⁶ cm/s			
CC[C@@]1(O)C(=O)OCc2c1cc1n(c2=O)Cc2c-1nc1cc(F)c(C)c3c1c2[C@@H]([C@H](N)CO)CC3 (single isomer, unassigned) [Compound 16-105, hydrochloride]	7.99	1.87 h	> 2.42 h	0.06 ×10⁻⁶ cm/s				0.07 ×10⁻⁶ cm/s			
CC[C@@]1(O)C(=O)OCc2c1cc1n(c2=O)Cc2c-1nc1cc(F)c(C)c3c1c2[C@@H]([C@@H](CCO)N(C)C)CC3 (single isomer, unassigned) [Compound 15-97]	9.52	1.88 h	0.6 h	15.7 ×10⁻⁶ cm/s				36.6 ×10⁻⁶ cm/s			
CC[C@@]1(O)C(=O)OCc2c1cc1n(c2=O)Cc2c-1nc1cc(F)c(C)c3c1c2[C@H]([C@@H](CCO)N(C)C)CC3 (single isomer, unassigned) [Compound 15-99]	9.49	3.47 h	0.967 h	8.5 ×10⁻⁶ cm/s				14.9 ×10⁻⁶ cm/s			
CC[C@@]1(O)C(=O)OCc2c1cc1n(c2=O)Cc2c-1nc1cc(F)c(C)c3c1c2[C@@H]([C@H](CO)NC(C)C)CC3 (single isomer, unassigned) [Compound 17-112]	7.77	> 3.62 h	1.03 h	6.3 ×10⁻⁶ cm/s				14.4 ×10⁻⁶ cm/s			

Source: patent US20260137795A1, “EXATECAN IMMUNOCONJUGATES” (Immunome, Inc., priority 2023, published 2026)
